In patent US6420367B1, “Pyrimidine derivatives exhibiting antitumor activity” (Shionogo & Co., Ltd., priority 1998, dated 2002):
Values after ≈ are worked out from the molar mass of the structure shown.

Experiments:
[1] = test system: DT-R cells (pRRE3-luc-transfected v-ki-ras-transformed NIH3T3 cells); signal derived from Ras oncogene products; test: Inhibitory effect against cellular signaling derived from Ras oncogene products: luciferase reporter, dissociation of DT-R from DT-C activity (MAC); format: cell-based, mouse; settings: minimal tested concentration at which luciferase activities of DT-C cells and DT-R cells dissociated
Procedure, shortened: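 DT-R (pRRE3-luc) and control DT-C (pGV-P) v-Ki-ras NIH3T3 cells were exposed 24 h to compound in 3-fold dilutions in DMEM/10% FCS at 37 °C, then lysed for luciferase luminescence. MAC is the lowest tested concentration at which DT-R and DT-C activities dissociate.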

[2] = test system: DT-C cells (pGV-P-transfected v-ki-ras-transformed NIH3T3 cells); test: Luciferase activity in control DT-C cells (IC50-C): non-specific transcription-inhibitory effect or cytotoxicity; format: cell-based, mouse; settings: tested concentration nearest to 50% inhibition in DT-C cells; index of non-specific transcription inhibition or cytotoxicity
From the text: Test Example 1 Inhibitory Effect Against Cellular Signaling Derived From Ras Oncogene Products
1) Establishment of Cell Lines Used in Assay
Based on the reporter plasmid (pGV-P (Toyo Ink, Japan)), in which luciferase gene was ligated to SV40-derived minimal promoter, we constructed a plasmid designated pRRE3-luc by inserting 3 copies of chemically synthesized oligonucleotides (Sequence: CAGGATATGACTCT, derived from mouse NVL-3 (M. A. Reddy et al.(1992)Mol. Endocrinol., 6, 1051)) into upstream of the promoter. v-ki-ras-transformed NIH3T3 cells (DT cells, provided by Dr. Makoto Noda (Kyoto Univ., School of medicine)) were transfected with this plasmid by liposome-mediated transfection and transfected cell lines stably incorporated and maintained each plasmid were obtained. We named pGV-P and pRRE3-transfected cell line as DT-C and DT-R, respectively and used in the assay described below.
2) Preparation of Samples
i) All the cell lines were cultured in Dulbecco's Modified Essential Medium (DMEM: 10% Fetal Calf Serum(FCS: Hyclone, USA)) including […] kanamycin (Meiji Seika, Japan) in humidified incubator under condition of 5% CO2 at 37° C.
ii) DT-C and DT-R cells were seeded at 2500 cells/well into flat-bottom 96 well multiplate (Sumitomo bakelite) and incubated for 24 hours.
iii) Test compounds were prepared as 1 mg/ml DMSO solution.
iv) The solution of test compounds were added to the culture. Tested compounds are used at the concentration from […] to 0.51 ng/ml with by 3-fold dilution.
v) After 24 hours, the culture supernatant was completely aspirated and […] of cell-lysing solution (PGC-50 (Toyo Ink, Japan)) was added before cells were dried up. In order to the cells were lysed completely, multiwell plates were left at room temperature for 10 to 30 min. The plates were wrapped up and stored at −20° C. till the day of measurement.
3) Measurement of Samples
i) Melt the samples by putting 96 well multiplate at 37° C. and add 90 μl/well 25 mM Tris (pH 7.5).
ii) Transfer 50 μl of the sample (110 μl) to the 96 well microplate for measurement (Microlite 1 (Dynatech)).
iii) Measure the samples by the luminometer, LUMINOUS CT9000D (Dia-Yatron, Japan). We used Pickagene luminescence kit PGL2000 or LT2.0 (Toyo Ink, Japan) as substrates for luminescence measurement (50 μl/well).
4) Judgment of the Results
i) The luciferase activity of DT-C cells and DT-R cells were plotted in the graph where the relative activity and the compound concentration were expressed as Y-axis and X-axis, respectively. We judged by the degree of dissociation between the activities of DT-C cells and DT-R cells as an index.
ii) Concretely, efficacy of the compound was expressed by two values described below.
b) Among the points of concentration tested, the concentration which is the nearest to 50% inhibition concentration at DT-C cells (IC50-C), was shown as an index of non-specific transcription-inhibitory effect or of cytotoxicity. In case of positive compounds, 50% inhibition concentration above the area of active concentration in DT-C cells was expressed as IC50-C.

human colon cancer HT29 = test: In vitro cell growth inhibition test, MTT assay; format: cell-based; settings: MTT assay 4 days after compound addition
Procedure, shortened: (§1)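 In vitro testing uses the MTT assay. The same panel includes human pancreas cancer PANC-1.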

[3] = test system: human lung adenocarcinoma A549; test: In vitro cell growth inhibition test, MTT assay; format: cell-based; settings: MTT assay 4 days after compound addition
Procedure, shortened: as §1

[4] = test system: human pancreas cancer PANC-1; test: In vitro cell growth inhibition test, MTT assay; format: cell-based; settings: MTT assay 4 days after compound addition
Procedure, shortened: as §1

[5] = test system: human squamous lung cancer Ma44; test: In vitro cell growth inhibition test, MTT assay; format: cell-based; settings: MTT assay 4 days after compound addition
Procedure, shortened: as §1

[6] = test system: human squamous lung cancer RERF-RC-AI; test: In vitro cell growth inhibition test, MTT assay; format: cell-based; settings: MTT assay 4 days after compound addition
Procedure, shortened: as §1

Compound	IC50, HT29 (human colon cancer HT29) [mg/L]	IC50, A549 [3] [mg/L]	IC50, PANC-1 [4] [mg/L]	IC50, Ma44 [5] [mg/L]	IC50, RERF-LC-AI [6] [mg/L]	MAC (Minimal Active Concentration) [1] [µg/mL]	IC50-C [2] [mg/L]
CCNC(=Nc1nc(C)ncc1CSc1nnc(-c2ccc([N+](=O)[O-])cc2N)o1)NCC [Compound A-75]	0.0038 (≈ 0.00831 µM)	0.0087 (≈ 0.019 µM)	0.0065 (≈ 0.0142 µM)	0.0058 (≈ 0.0127 µM)	0.004 (≈ 0.00874 µM)	<0.000508	>10
CCNC(=Nc1nc(C)ncc1CSc1nnc(-c2ccc(C(F)(F)F)cc2)o1)NCC [Compound A-106]	0.043 (≈ 0.0924 µM)	0.082 (≈ 0.176 µM)	0.056 (≈ 0.12 µM)	0.086 (≈ 0.185 µM)	–	0.370	>10
CCCNC(=Nc1nc(C)ncc1CSc1nnc(-c2ccccc2N)o1)NCC [Compound A-36]	0.015 (≈ 0.0352 µM)	–	0.014 (≈ 0.0328 µM)	0.026 (≈ 0.061 µM)	0.0072 (≈ 0.0169 µM)	0.0412	3.33 (≈ 7.81 µM)
CCNC(=Nc1nc(C)ncc1CSc1nnc(-c2ccc(C)cc2N)o1)NCC [Compound A-63]	–	–	0.0087 (≈ 0.0204 µM)	0.053 (≈ 0.124 µM)	0.006 (≈ 0.0141 µM)	0.0412	3.33 (≈ 7.81 µM)
CCNC(=Nc1nc(C)ncc1CSc1nnc(-c2ccc(Br)cc2)o1)NCC [Compound A-108]	0.022 (≈ 0.0462 µM)	0.027 (≈ 0.0567 µM)	0.027 (≈ 0.0567 µM)	0.029 (≈ 0.0609 µM)	–	0.123	>10
CCNC(=Nc1nc(C)ncc1CSc1nnc(-c2ccc(F)cc2NC(C)=O)o1)NCC [Compound A-60]	–	–	0.0039 (≈ 0.00825 µM)	0.012 (≈ 0.0254 µM)	0.004 (≈ 0.00846 µM)	<0.000508	>10
CCNC(=Nc1nc(CC)ncc1CSc1nnc(-c2ccccc2N)o1)NCC [Compound A-37]	0.03 (≈ 0.0703 µM)	–	0.025 (≈ 0.0586 µM)	0.24 (≈ 0.563 µM)	0.021 (≈ 0.0492 µM)	0.0412	3.33 (≈ 7.81 µM)
CCNC(=Nc1ncncc1CSc1nnc(-c2ccc(C(N)=S)cc2)o1)NCC [Compound A-123]	0.041 (≈ 0.0926 µM)	0.15 (≈ 0.339 µM)	–	0.09 (≈ 0.203 µM)	0.034 (≈ 0.0768 µM)	1.11	>10
CCNC(=Nc1nc(C)ncc1CSc1nnc(-c2ccc(Cl)cc2N)o1)NCC [Compound A-44]	0.0061 (≈ 0.0136 µM)	–	0.16 (≈ 0.358 µM)	0.018 (≈ 0.0403 µM)	0.0061 (≈ 0.0136 µM)	<0.000508	3.33 (≈ 7.45 µM)
CCNC(=Nc1nc(C)ncc1CSc1nnc(-c2ccc(Cl)cc2NC(C)=O)o1)NCC [Compound A-61]	–	–	0.0063 (≈ 0.0129 µM)	0.016 (≈ 0.0327 µM)	0.0041 (≈ 0.00838 µM)	<0.000508	>10
CCNC(=Nc1ncncc1CSc1nnc(-c2ccc(N)cc2)o1)NCCOC(C)=O [Compound A-112]	0.064 (≈ 0.14 µM)	0.38 (≈ 0.832 µM)	–	2 (≈ 4.38 µM)	0.023 (≈ 0.0504 µM)	1.11	>10

More lines, main results first:

IC50, HT29 (human colon cancer HT29) [mg/L]	IC50, A549 [3] [mg/L]	IC50, PANC-1 [4] [mg/L]	IC50, Ma44 [5] [mg/L]	IC50, RERF-LC-AI [6] [mg/L]	Compound	MAC (Minimal Active Concentration) [1] [µg/mL]	IC50-C [2] [mg/L]
0.0077 (≈ 0.0174 µM)	0.014 (≈ 0.0316 µM)	0.0065 (≈ 0.0147 µM)	0.0054 (≈ 0.0122 µM)	0.0027 (≈ 0.0061 µM)	CNC(=Nc1nc(C)ncc1CSc1nnc(-c2ccc([N+](=O)[O-])cc2)o1)NC(C)C [Compound A-170]	<0.000508	>10
0.012 (≈ 0.0324 µM)	0.032 (≈ 0.0864 µM)	0.014 (≈ 0.0378 µM)	0.076 (≈ 0.205 µM)	0.0067 (≈ 0.0181 µM)	CNC(=Nc1ncncc1CSc1nnc(-c2ccc(N)cc2)o1)NC [Compound A-174]	0.37	>10
0.042 (≈ 0.0842 µM)	0.047 (≈ 0.0943 µM)	0.026 (≈ 0.0521 µM)	0.044 (≈ 0.0882 µM)	0.036 (≈ 0.0722 µM)	CCCCNC(=Nc1nc(C)ncc1CSc1nnc(-c2ccc([N+](=O)[O-])cc2)o1)NCCCC [Compound A-128]	0.0412	3.33 (≈ 6.68 µM)
0.01 (≈ 0.0201 µM)	0.017 (≈ 0.0342 µM)	0.01 (≈ 0.0201 µM)	0.015 (≈ 0.0302 µM)	0.0053 (≈ 0.0107 µM)	CCNC(=Nc1nc(C)ncc1CSc1nnc(-c2ccc([N+](=O)[O-])cc2)o1)NCC(F)(F)F [Compound A-175]	0.0137	3.33 (≈ 6.71 µM)
0.068 (≈ 0.159 µM)	0.047 (≈ 0.11 µM)	0.015 (≈ 0.035 µM)	0.015 (≈ 0.035 µM)	0.01 (≈ 0.0233 µM)	CCNC(=Nc1nc(C)ncc1CSc1nnc(-c2ccc([N+](=O)[O-])cc2)o1)NC [Compound A-133]	0.0137	>10
0.012 (≈ 0.0281 µM)	–	0.018 (≈ 0.0422 µM)	0.04 (≈ 0.0938 µM)	0.008 (≈ 0.0188 µM)	CCNC(=Nc1nc(CC)ncc1CSc1nnc(-c2ccc(N)cc2)o1)NCC [Compound A-154]	0.0412	>10
0.09 (≈ 0.226 µM)	0.22 (≈ 0.552 µM)	–	0.52 (≈ 1.3 µM)	0.11 (≈ 0.276 µM)	CCNC(=Nc1ncncc1CSc1nnc(-c2ccc(C)nc2)o1)NCC [Compound D-29]	1.11	>10
0.008 (≈ 0.0201 µM)	–	0.015 (≈ 0.0376 µM)	0.044 (≈ 0.11 µM)	0.005 (≈ 0.0125 µM)	CCCNC(N)=Nc1nc(C)ncc1CSc1nnc(-c2ccc(N)cc2)o1 [Compound A-157]	0.0137	>10
0.08 (≈ 0.175 µM)	–	0.009 (≈ 0.0197 µM)	0.009 (≈ 0.0197 µM)	0.006 (≈ 0.0131 µM)	CCCNC(=Nc1ncncc1CSc1nnc(-c2ccc([N+](=O)[O-])cc2)o1)NCCC [Compound A-155]	0.00457	3.33 (≈ 7.29 µM)
0.028 (≈ 0.0611 µM)	0.026 (≈ 0.0567 µM)	–	0.024 (≈ 0.0523 µM)	0.022 (≈ 0.048 µM)	CCNC(=Nc1ncncc1CSc1nnc(-c2ccc([N+](=O)[O-])cc2OC)o1)NCC [Compound A-124]	0.0137	>10
0.025 (≈ 0.0583 µM)	–	0.03 (≈ 0.07 µM)	0.032 (≈ 0.0747 µM)	0.007 (≈ 0.0163 µM)	CCCNC(N)=Nc1nc(C)ncc1CSc1nnc(-c2ccc([N+](=O)[O-])cc2)o1 [Compound A-158]	0.0412	>10
